Among the data in PubChem BioAssay (NCI) are TGI and GI50 values, retold here.

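A five-concentration, 48-hour dose response in 96-well plates underlies each endpoint, interpolated linearly between surrounding concentrations. Here, GI50 denotes the concentration required for 50% inhibition of growth. TGI denotes the concentration required for complete inhibition of growth.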

Among the test systems are 786-0 renal; LOX IMVI melanoma; MOLT-4 leukemia; OVCAR-4 ovarian; OVCAR-8 ovarian; RXF 393 renal; SK-MEL-2 melanoma; SR leukemia.
Common to all, as to assay: NCI tumour cell line growth inhibition, 48 h

With `O=C(O)c1ccc(O)c(N=Nc2cc(S(=O)(=O)O)c3ccccc3c2O)c1`, the TGI in the assay on 786-0 renal, in the assay on LOX IMVI melanoma, in the assay on MOLT-4 leukemia, in the assay with OVCAR-4 ovarian, in the assay with OVCAR-8 ovarian and with RXF 393 renal was greater than 100 µM each time. For the same compound, the figures for the TGI with SK-MEL-2 melanoma and in the assay with SR leukemia were greater than 10 µM and greater than 100 µM, respectively.
For the compound `O=C1C(=O)c2ccccc2-c2ccccc21`, the GI50 in the assay on 786-0 renal is 1.83 µM; with LOX IMVI melanoma, 0.367 µM; in the assay on MOLT-4 leukemia it was 1.56 µM; with OVCAR-4 ovarian it was 1 µM; in the assay on OVCAR-8 ovarian, 0.662 µM; in the assay with RXF 393 renal, 1.72 µM. In addition, the GI50 in the assay on SK-MEL-2 melanoma was 2.02 µM; with SR leukemia, 0.555 µM. Besides, the TGI is 3.35 µM in the assay with 786-0 renal; 1.79 µM in the assay with LOX IMVI melanoma; 4.75 µM in the assay on MOLT-4 leukemia; 2.25 µM in the assay on OVCAR-4 ovarian; 2.15 µM in the assay on OVCAR-8 ovarian; 3.12 µM in the assay on RXF 393 renal. Besides, the TGI in the assay on SK-MEL-2 melanoma is 4.79 µM; in the assay on SR leukemia, 7.82 µM.
Consider `N#CC(=S)Nc1ccc(Cl)c(Cl)c1`, for which the TGI is greater than 66.9 µM with 786-0 renal; 66.2 µM with LOX IMVI melanoma; 43.5 µM with MOLT-4 leukemia; greater than 100 µM with OVCAR-4 ovarian; greater than 87.1 µM in the assay on OVCAR-8 ovarian; 52.4 µM in the assay on RXF 393 renal. Further, the TGI with SK-MEL-2 melanoma is 33.2 µM; in the assay on SR leukemia, 67.4 µM. For the same compound, the GI50 in the assay with OVCAR-4 ovarian was 5.67 µM.
For `Cc1cccc2c(N=Nc3ccc(S(N)(=O)=O)cc3)c(O)[nH]c12`, the GI50 with 786-0 renal, in the assay with LOX IMVI melanoma, in the assay on MOLT-4 leukemia, with OVCAR-4 ovarian, with OVCAR-8 ovarian and with RXF 393 renal was greater than 25 µM each time. In addition, the GI50 with SK-MEL-2 melanoma and with SR leukemia was greater than 25 µM each time. For the same compound, the TGI in the assay on 786-0 renal, in the assay on LOX IMVI melanoma, in the assay with MOLT-4 leukemia, in the assay with OVCAR-4 ovarian, in the assay with OVCAR-8 ovarian and in the assay on RXF 393 renal was greater than 25 µM in each case. Further, the TGI in the assay with SK-MEL-2 melanoma and with SR leukemia was greater than 25 µM throughout.
Consider `Clc1cc(Cl)c(Cl)c(-c2nc(-c3cccnc3)cs2)c1`, for which the GI50 was 12.9 µM in the assay on 786-0 renal; 16 µM in the assay on LOX IMVI melanoma; 39.1 µM in the assay with MOLT-4 leukemia; 25.6 µM in the assay with OVCAR-4 ovarian; 14.3 µM in the assay with OVCAR-8 ovarian; 10.9 µM in the assay with RXF 393 renal. Besides, the figures for the GI50 with SK-MEL-2 melanoma and in the assay on SR leukemia were 22.1 µM and greater than 100 µM, respectively. In addition, the TGI is 29.8 µM in the assay with 786-0 renal; 37.6 µM with LOX IMVI melanoma; greater than 100 µM in the assay with MOLT-4 leukemia; 98.8 µM with OVCAR-4 ovarian; 66.5 µM in the assay on OVCAR-8 ovarian; 35.2 µM with RXF 393 renal. The TGI in the assay on SK-MEL-2 melanoma was 81.9 µM; with SR leukemia, greater than 100 µM.
Regarding `Cc1cc(C)c(O)c(Cc2cccc(Cc3cc(C)cc(C)c3O)c2O)c1`, the TGI with 786-0 renal, with LOX IMVI melanoma, in the assay on MOLT-4 leukemia, in the assay with OVCAR-4 ovarian, in the assay on OVCAR-8 ovarian and in the assay on RXF 393 renal was greater than 100 µM in each case. Further, the TGI in the assay on SK-MEL-2 melanoma and in the assay on SR leukemia was greater than 100 µM each time.
Consider `COc1cc(/C=C/C(=O)c2ccc(Nc3ncnc4ccccc34)cc2)cc(OC)c1`, for which the GI50 was 4.2 µM with 786-0 renal; 1.85 µM in the assay on LOX IMVI melanoma; 2.4 µM in the assay on MOLT-4 leukemia; 4.28 µM in the assay with OVCAR-4 ovarian; 3.68 µM in the assay on OVCAR-8 ovarian; 2.11 µM in the assay on RXF 393 renal. Further, the GI50 in the assay with SK-MEL-2 melanoma is 16.2 µM; with SR leukemia it was 0.556 µM. In addition, the TGI in the assay with 786-0 renal was determined as 14.5 µM; in the assay with LOX IMVI melanoma, 4.16 µM; in the assay with MOLT-4 leukemia, 17.1 µM; in the assay on OVCAR-4 ovarian, 25.2 µM; with OVCAR-8 ovarian it was 17.1 µM; in the assay with RXF 393 renal, 9.32 µM. Further, the TGI in the assay with SK-MEL-2 melanoma was 57.7 µM; with SR leukemia, 3.17 µM.
As to `COc1ccc(/C(C)=C(\c2ccc(Cl)cc2)c2ccc(OCCN3CCCC3)cc2)cc1F`, the GI50 was 3.39 µM in the assay with 786-0 renal; 1.04 µM with LOX IMVI melanoma; 3.48 µM with MOLT-4 leukemia; 3.21 µM in the assay with OVCAR-4 ovarian; 4.22 µM in the assay on OVCAR-8 ovarian; 3.19 µM in the assay on RXF 393 renal. Also, the GI50 in the assay on SK-MEL-2 melanoma was 4.27 µM; in the assay on SR leukemia, 1.18 µM. The TGI with 786-0 renal is 7.02 µM; in the assay on LOX IMVI melanoma it was 3.66 µM; with MOLT-4 leukemia, 8.28 µM; in the assay on OVCAR-4 ovarian, 6.62 µM; in the assay with OVCAR-8 ovarian it was 9.68 µM; in the assay with RXF 393 renal it was 6.49 µM. Also, the TGI with SK-MEL-2 melanoma turned out to be 8.4 µM; in the assay on SR leukemia it was 6.47 µM.
As for `COc1ccc(/C=C2\CN(Cc3cn(CCCNc4ccnc5cc(Cl)ccc45)nn3)C/C(=C\c3ccc(OC)c(OC)c3)C2=O)cc1OC`, the GI50 in the assay on 786-0 renal was 1.95 µM; in the assay with LOX IMVI melanoma, 1.08 µM; in the assay with MOLT-4 leukemia it was 1.39 µM; in the assay with OVCAR-4 ovarian it was 1.11 µM; in the assay on OVCAR-8 ovarian, 0.81 µM; in the assay with RXF 393 renal, 1.56 µM. Moreover, the GI50 is 2.32 µM in the assay with SK-MEL-2 melanoma and 0.382 µM in the assay on SR leukemia. The TGI in the assay on 786-0 renal is 4.39 µM; with LOX IMVI melanoma it was 2.43 µM; in the assay on MOLT-4 leukemia, 6.27 µM; in the assay on OVCAR-4 ovarian, 18.1 µM; with OVCAR-8 ovarian, 15.4 µM; in the assay with RXF 393 renal, 3.01 µM. In addition, the values for the TGI in the assay on SK-MEL-2 melanoma and in the assay with SR leukemia were 6.84 µM and 12 µM, respectively.
Turning to `O=C1OCc2c1cc(F)cc2[N+](=O)[O-]`, the GI50 in the assay on 786-0 renal, with LOX IMVI melanoma, with MOLT-4 leukemia, in the assay with OVCAR-4 ovarian, with OVCAR-8 ovarian and with RXF 393 renal was greater than 100 µM throughout. Moreover, the GI50 in the assay with SK-MEL-2 melanoma and in the assay on SR leukemia was greater than 100 µM throughout. The TGI in the assay on 786-0 renal, with LOX IMVI melanoma, with MOLT-4 leukemia, in the assay on OVCAR-4 ovarian, with OVCAR-8 ovarian and in the assay with RXF 393 renal was greater than 100 µM throughout. In addition, the TGI with SK-MEL-2 melanoma and in the assay on SR leukemia was greater than 100 µM each time.
